Data published in PubChem BioAssay AID1963846 (Molecular Pharmacology Branch, DTP, NCI, 2024).

Test system: 454973-116-R2-J3-PDC complex spheroid viability
Experiment: Anticancer human tumor 454973-116-R2-J3-PDC patient-derived pancreatic carcinoma cell line growth inhibition [POLQ]
Conditions: for IC50: curve of first compound; for viability, T/C: stronger effect = lower value
Experimental: Multicellular complex tumor spheroid response to Polymerase (POL) inhibitors (novobiocin, ART-558, RP6685) in combination with a variety of drugs and investigational agents in selected tumor cell lines
The POL inhibitors (novobiocin, ART-558, and RP6685) were evaluated both individually and in combination with standard of care and investigational anticancer small molecules within a complex spheroid model of solid tumors. . Complex spheroids include a stromal component modeled by human endothelial cells (HUVEC) and fibroblasts modeled by human mesenchymal stem cells (MSCs). The concentration ranges selected for each drug and investigational agent were based upon clinically achievable concentrations if the clinical Cmax of the agent was known.
Compounds. The drugs and investigational agents: novobiocin (NSC847541), ART-558 (NSC835418), RP-6685 (NSC848927), peposertib (NSC802822), ceralasertib (NSC780249), elimusertib (NSC800525), camonsertib (NSC841442), AZD-1390 (NSC803789), olaparib (NSC753686), talazoparib (NSC767125), rucaparib (NSC756644), sotorasib (NSC818433), MRTX-1133 (NSC836407), SN-38 (NSC673596), topotecan (NSC609699), epotoside (NSC141540), doxorubicin (NSC123127), gemcitabine (NSC613327), 5-fluorouracil (NSC19893), paclitaxel (NSC125973), vemurafenib (NSC761431), MSA-2 (NSC828583), SN-011 (NSC837082), adavosertib (NSC754352), prexasertib (NSC758257), carboplatin (NSC241240) and oxaliplatin (NSC266046), were obtained from the National Cancer Institute (NCI) Developmental Therapeutics Program Chemical Repository (21). The FDA-approved anticancer drug set is available from the Developmental Therapeutics Program at https://dtp.cancer.gov/organization/dscb/obtaining/. […] The stock solutions were prepared in dimethyl sulfoxide (DMSO, Sigma-Aldrich, St. Louis, MO, cat. D2650), except for the platinum compounds which were prepared in saline (Quality Biological, Gaithersburg, MD, cat. 114-055-101), at 800-fold the tested concentration and stored at -70 degrees C prior to their use. All drugs and investigational agents were tested over a range starting from a high concentration at or near the clinical Cmax and decreasing in half-log increments. If the clinical Cmax for an agent had not been determined, the highest concentration tested was 10 microM, except for SN-38, which was tested at a high concentration of 1 microM.
Cell Culture. All cells were maintained in an incubator at 37 degrees C and 5% CO2 with 95% humidity. The PDC lines were cultured according to standard operating procedures established by the NCI PDMR (https://pdmr.cancer.gov). Table 3 of the manuscript, lists the cell lines along with the number of the three cell types plated to form the mct-spheroids and media for tumor cell growth. After thawing, all PDC lines, except 997537-175-T-J1-PDC and 415267-285-R-J2-PDC, were cultured in Matrigel-coated flasks prepared with a working solution of 1X Ham's F-12 nutrient mix, without supplementation (Thermo Fisher Scientific, cat. 11765054), 100 U/mL penicillin-streptomycin (Thermo Fisher Scientific, cat. 15140122), and 2.5% Matrigel (Corning Inc., Corning, NY, cat. 354248) for the first three passages. The two PDC lines 997537-175-T-J1-PDC and 415267-285-R-J2-PDC were cultured on uncoated flasks. The 857933-349-R-J2-PDC line was cultured in 6C/Colon 1B media containing advanced DMEM/F-12 (Thermo Fisher Scientific, cat. 12634028), 10 mM HEPES (Thermo Fisher Scientific, cat. 15630080), 1X GlutaMAX supplement (Thermo Fisher Scientific, cat. 35050061), 0.1 mg/mL primocin (InvivoGen, San Diego, CA, cat. ant-pm-2), 10% defined fetal bovine serum, heat inactivated (HyClone Laboratories Inc., Logan, UT, cat. SH30070.03HI), 50% L-WRN conditioned media (ATCC, cat. CRL-3276), 1.25 mM N-Acetyl-L-cysteine (Sigma-Aldrich, cat. A9165), 10 mM nicotinamide (Sigma-Aldrich, cat. N0636), 1X B-27 supplement (Thermo Fisher Scientific, cat. 17504044), 1X N-2 supplement (Thermo Fisher Scientific, cat. […]

[1] = second compound 0.0316 µM, first compound 0.0316 µM
[2] = second compound 0.0316 µM, first compound 0.1 µM
[3] = second compound 0.0316 µM, first compound 0.316 µM
[4] = second compound 0.0316 µM, first compound 1 µM
[5] = second compound 0.0316 µM, first compound 3.16 µM
[6] = second compound 0.0316 µM, first compound 10 µM
[7] = second compound 0.1 µM, first compound 0.0316 µM
[8] = second compound 0.1 µM, first compound 0.1 µM
[9] = second compound 0.1 µM, first compound 0.316 µM
[10] = second compound 0.1 µM, first compound 1 µM
[11] = second compound 0.1 µM, first compound 3.16 µM
[12] = second compound 0.1 µM, first compound 10 µM
[13] = second compound 0.316 µM, first compound 0.0316 µM
[14] = second compound 0.316 µM, first compound 0.1 µM
[15] = second compound 0.316 µM, first compound 0.316 µM
[16] = second compound 0.316 µM, first compound 1 µM
[17] = second compound 0.316 µM, first compound 3.16 µM
[18] = second compound 0.316 µM, first compound 10 µM
[19] = second compound 1 µM, first compound 0.0316 µM
[20] = second compound 1 µM, first compound 0.1 µM
[21] = second compound 1 µM, first compound 0.316 µM
[22] = second compound 1 µM, first compound 1 µM
[23] = second compound 1 µM, first compound 3.16 µM
[24] = second compound 1 µM, first compound 10 µM
[25] = second compound 3.16 µM, first compound 0.0316 µM
[26] = second compound 3.16 µM, first compound 0.1 µM
[27] = second compound 3.16 µM, first compound 0.316 µM
[28] = second compound 3.16 µM, first compound 1 µM
[29] = second compound 3.16 µM, first compound 3.16 µM
[30] = second compound 3.16 µM, first compound 10 µM
[31] = second compound 10 µM, first compound 0.0316 µM
[32] = second compound 10 µM, first compound 0.1 µM
[33] = second compound 10 µM, first compound 0.316 µM
[34] = second compound 10 µM, first compound 1 µM
[35] = second compound 10 µM, first compound 3.16 µM
[36] = second compound 10 µM, first compound 10 µM
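Also: spheroids exposed to drugs for seven days before measurement.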
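For viability, T/C in this document: percent viability relative to DMSO vehicle control wells taken as 100%.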

## COc1ccc([C@@H](O)c2cc(-c3ncnc4cc(N5CCOCC5)ccc34)c(F)cc2Cl)nn1 + COC1C(OC(N)=O)C(O)C(Oc2ccc3c(O)c(NC(=O)c4ccc(O)c(CC=C(C)C)c4)c(=O)oc3c2C)OC1(C)C
Second compound 0.0316 µM
  IC50: 9500 nM
Second compound 0.1 µM
  IC50: > 10000 nM
Second compound 0.316 µM
  IC50: > 10000 nM
Second compound 1 µM
  IC50: > 10000 nM
Second compound 3.16 µM
  IC50: > 10000 nM
Second compound 10 µM
  IC50: > 10000 nM
[1]
  viability, T/C: 97.9%
[2]
  viability, T/C: 99.5%
[3]
  viability, T/C: 99%
[4]
  viability, T/C: 94.4%
[5]
  viability, T/C: 75.2%
[6]
  viability, T/C: 48.8%
[7]
  viability, T/C: 104%
[8]
  viability, T/C: 106%
[9]
  viability, T/C: 96.7%
[10]
  viability, T/C: 98.2%
[11]
  viability, T/C: 73.2%
[12]
  viability, T/C: 52.5%
[13]
  viability, T/C: 112%
[14]
  viability, T/C: 107%
[15]
  viability, T/C: 98.3%
[16]
  viability, T/C: 95%
[17]
  viability, T/C: 71.7%
[18]
  viability, T/C: 51.3%
[19]
  viability, T/C: 113%
[20]
  viability, T/C: 102%
[21]
  viability, T/C: 115%
[22]
  viability, T/C: 103%
[23]
  viability, T/C: 65.6%
[24]
  viability, T/C: 51.4%
[25]
  viability, T/C: 112%
[26]
  viability, T/C: 107%
[27]
  viability, T/C: 98.8%
[28]
  viability, T/C: 88.3%
[29]
  viability, T/C: 78.8%
[30]
  viability, T/C: 54.2%
[31]
  viability, T/C: 116%
[32]
  viability, T/C: 93.3%
[33]
  viability, T/C: 93.3%
[34]
  viability, T/C: 83.5%
[35]
  viability, T/C: 76.3%
[36]
  viability, T/C: 50.6%

## C#Cc1c(F)ccc2cc(O)cc(-c3ncc4c(N5CC6CCC(C5)N6)nc(OCC56CCCN5CC(F)C6)nc4c3F)c12 (centres undefined) + Cc1cccc(N(C)C(=O)C2C(O)CCN2c2nc(C)cc(C(F)(F)F)c2C#N)c1
Second compound 0.0316 µM
  IC50: 66.3 nM
Second compound 0.1 µM
  IC50: 71.1 nM
Second compound 0.316 µM
  IC50: 72.8 nM
Second compound 1 µM
  IC50: 60.6 nM
Second compound 3.16 µM
  IC50: 47.6 nM
Second compound 10 µM
  IC50: < 31.6 nM
[1]
  viability, T/C: 60.8%
[2]
  viability, T/C: 44.5%
[3]
  viability, T/C: 32.2%
[4]
  viability, T/C: 25.6%
[5]
  viability, T/C: 23%
[6]
  viability, T/C: 19.5%
[7]
  viability, T/C: 65.3%
[8]
  viability, T/C: 43.8%
[9]
  viability, T/C: 32.6%
[10]
  viability, T/C: 30.1%
[11]
  viability, T/C: 26.5%
[12]
  viability, T/C: 26.6%
[13]
  viability, T/C: 66.6%
[14]
  viability, T/C: 44.4%
[15]
  viability, T/C: 32.8%
[16]
  viability, T/C: 27.9%
[17]
  viability, T/C: 23.2%
[18]
  viability, T/C: 28.9%
[19]
  viability, T/C: 56%
[20]
  viability, T/C: 45.3%
[21]
  viability, T/C: 31.9%
[22]
  viability, T/C: 25.2%
[23]
  viability, T/C: 26.5%
[24]
  viability, T/C: 25.3%
[25]
  viability, T/C: 52.9%
[26]
  viability, T/C: 44.5%
[27]
  viability, T/C: 35.1%
[28]
  viability, T/C: 23.9%
[29]
  viability, T/C: 28.2%
[30]
  viability, T/C: 24.4%
[31]
  viability, T/C: 50%
[32]
  viability, T/C: 38.5%
[33]
  viability, T/C: 36%
[34]
  viability, T/C: 31.8%
[35]
  viability, T/C: 29.1%
[36]
  viability, T/C: 23.7%
